Tests used:
[1] = system: Endothelin-converting enzyme (ECE); assay: Endothelin-converting enzyme (ECE) activity in neuroblastoma cells; type: cell-based, human; conditions: bryostatin 0.27 nM, BR-101 1 μM, BR-111 1 μM
Experimental: ECE assay. […] neuroblastoma cells were incubated with bryostatin (0.27 nM), BR-101 (DCP-LA) (1 μM), and BR-111 (DHA-CP6) (1 μM). Endothelin-converting enzyme (ECE) was measured fluorimetrically using the method of Johnson and Ahn (Anal. Biochem. (2000), vol. 286, pp. 112-118). A sample of cell homogenate (20 μl) was incubated in 50 mM MES-KOH, pH 6.0, 0.01% C12E10 (polyoxyethylene-10-lauryl ether), and 15 μM McaBK2 (7-Methoxycoumarin-4-acetyl [Ala7-(2,4-Dinitrophenyl)Lys9]-bradykinin trifluoroacetate salt) (Sigma-Aldrich). After 60 min at 37° C., the reaction was quenched by adding trifluoroacetic acid to 0.5%. The sample was diluted to 1.4 ml with water and the fluorescence was measured at ex=334 nm, em=398 nm.

Aβ = Aβ production in N2a neuroblastoma cells transfected with human APPSwe/PSID; type: cell-based, mouse; conditions: 24 hours
Experimental: Cell culture. Rat hippocampal H19-7/IGF-IR cells (ATCC, Manassas, Va.) were plated onto poly-L-lysine coated plates and grown at 35° C. in DMEM/10% FCS for several days until about 50% coverage was obtained. The cells were then induced to differentiate into a neuronal phenotype by replacing the medium with 5 ml N2 medium containing 10 ng/ml basic fibroblast growth factor at 39° C. and grown in T-75 flasks at 37° C. Human SH-SY5Y neuroblastoma cells (ATCC) were cultured in 45% F12K/45% MEM/10% FCS. Mouse N2A neuroblastoma cells were cultured in DMEM/10% FCS without glutamine. Rat hippocampal neurons from 18-day-old embryonic Sprague Dawley rat brains were plated on 12- or 96-well plates coated with poly-D-lysine (Sigma-Aldrich, St. Louis, Mo.) in B-27 neurobasal medium containing 0.5 mM glutamine and 25 μM glutamate (Invitrogen, Carlsbad, Calif.) and cultured for three days in the medium without glutamate. The neuronal cells were grown under 5% CO2 in an incubator maintained at 37° C. for 14 days.
(§1) Aβ Measurement and Cell Viability Assay. Aβ was measured using an Aβ 1-42 human fluorimetric ELISA kit (Invitrogen) according to the manufacturer's instructions. Results were measured in a Biotek Synergy HT microplate reader. AlamarBlue and CyQuant NF (Invitrogen) according to the manufacturer's instructions.
To measure the effects of PKCε activation on Aβ production, mouse neuro2a (N2a) neuroblastoma cells transfected with human APPSwe/PSID were used, which produce large quantities of Aβ. Petanceska et al., J. Neurochem. (1996), vol. 74, pp. 1878-1884. […] With bryostatin, which activates PKC by binding to the diacylglycerol-binding site, the inhibition was biphasic with concentrations of 20 nM or higher producing no net effect. This may be explained by the ability of this class of PKC activators to downregulate PKC when used at high concentrations.

[2] = system: SH-SY5Y neuroblastoma cells; assay: Cell survival and proliferation (alamar Blue, CyQuant); type: cell-based, human; conditions: alamar Blue and CyQuant staining
Experimental: as §1

PKCα = target: T1, PKCα (Homo sapiens, UniProt P17252); assay: PKC assay with PKCα; type: biochemical; conditions: data not shown
T1 construct: purchased Calbiochem
Experimental: PKC assay. Recombinant PKC (1 ng of PKCα or PKCε isoform) was mixed with BR-101 (DCP-LA) in the presence of 10 micromolar histones, 5 mM CaCl2, 1.2 μg/μl phosphatidyl-L-serine, 0.18 μg/μl 1,2-dioctanoyl-sn-glycerol (DAG), 10 mM MgCl2, 20 mM HEPES (pH 7.4), 0.8 mM EDTA, 4 mM EGTA, 4% glycerol, 8 μg/ml aprotinin, 8 μg/ml leupeptin, and 2 mM benzamidine. 0.5 micro Ci[^γ32P]ATP was added. The incubation mixture was incubated for 15 min at 37 degrees in a total volume of 10 microliters. The reaction was stopped by spotting the reaction mixtures on 1×2 cm strips of cellulose phosphate paper (Whatman P81) and immediately washing twice for 1 hr in 0.5% H3PO4. The cellulose phosphate strips were counted in a scintillation counter. In some experiments, phosphatidylserine, diacylglycerol, and/or calcium were removed.
Protein kinase C assay. […] 0.5 Ci [^γ32P]ATP was added and ^32P-phosphoprotein formation was measured by adsorption onto phosphocellulose as described previously. […] PKC activity was measured in the absence of diacylglycerol and phosphatidylserine and PKC δ, ε, η, and μ were measured in the absence of added EGTA and CaCl2, as described by Kanno et al. (J. Lipid Res. 2006, vol. 47, pp. 1146-1150). […]
To determine their PKC isozyme specificity, fatty acid derivatives were preincubated with purified PKC for five minutes and the PKC activity was measured radiometrically.

CCCCCC1CC1CC1CC1CCCCCCCC(=O)O (centres unmarked) [BR-101, 2-[(2-pentylcyclopropyl)methyl]cyclopropaneoctanoic acid]
ECE activity [1]: sustained increase
levels of intracellular Aβ (Aβ; various concentrations): markedly reduced
levels of secreted Aβ (Aβ; various concentrations): markedly reduced
concentration dependence of Aβ inhibition (Aβ; fatty acid derivatives up to 10 μM to 100 μM): monotonically increasing inhibition
effect on cell survival [2]: no effect
effect on proliferation [2]: no effect
effect on PKCα at higher concentrations (PKCα; 50-100 μM): activated
effect on PKCα (PKCα): not affected

From patent US20120027687A1, “FATTY ACID PROTEIN KINASE C ACTIVATORS AND ANTICOAGULANT FOR THE TREATMENT OF STROKE” (priority 2010, published 2012)
